Experimental data: ChEMBL document CHEMBL1201862, “PubChem BioAssay data set” (2004)
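In this assay, cells in 96-well plates receive the compound at five concentrations for 48 hours. Endpoints are linearly interpolated between the surrounding concentrations. GI50 marks 50% less growth.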 Active and inactive are the calls of the source. Cut-off read from the data, not from the text of the source: active = GI50 up to about 1.1 µM and inactive = higher.

Tests used:
Assay in all cases: NCI-60 cell line screen, 48 h
[1] = tested on: HOP-92
[2] = tested on: SN12C
[3] = tested on: ACHN
[4] = tested on: A498
[5] = tested on: K562
[6] = tested on: A549
[7] = tested on: SK-MEL-28
[8] = tested on: M14
[9] = tested on: IGROV-1
[10] = tested on: OVCAR-8
[11] = tested on: OVCAR-4
[12] = tested on: RXF 393
[13] = tested on: SF-295
[14] = tested on: NCI-H460
[15] = tested on: SR

Measured: GI50

CC(C)(C)OP(=O)(OC(C)(C)C)C(O)c1ccc(/C=C(\C#N)C(N)=O)cc1 (stereo unspecified)
inactive: [1] > 100 µM | [2] > 100 µM | [3] > 100 µM | [4] > 100 µM | [5] > 100 µM | [6] > 100 µM | [7] > 100 µM | [8] > 100 µM | [9] > 100 µM | [10] > 100 µM | [11] > 100 µM | [12] > 100 µM | [13] > 100 µM | [14] > 100 µM

N#C/C(=C1\SC(/N=N/c2ccc(Cl)cc2)C(=O)N1c1ccccc1)c1nc2ccccc2[nH]1 (stereo unspecified)
inactive: [1] 18.8 µM | [2] 96.8 µM | [3] 25.5 µM | [4] 29.7 µM | [5] 14.1 µM | [6] 29.7 µM | [7] 36 µM | [8] 20.1 µM | [10] 54.2 µM | [11] 23 µM | [12] 36.6 µM | [13] 18.5 µM | [14] 33.7 µM

CN1S(=O)(=O)N(C)P12(N=P(CP(=NP13(N(C)S(=O)(=O)N1C)N(C)S(=O)(=O)N3C)(c1ccccc1)c1ccccc1)(c1ccccc1)c1ccccc1)N(C)S(=O)(=O)N2C
inactive: [1] > 100 µM | [2] > 100 µM | [3] > 100 µM | [4] > 100 µM | [5] > 100 µM | [6] > 100 µM | [7] > 100 µM | [8] > 100 µM | [9] > 100 µM | [10] > 100 µM | [12] > 100 µM | [14] > 100 µM

CN1/C(=C/C(=O)c2ccc(Cl)cc2)Nc2ccccc21
inactive: [2] 60.4 µM | [3] 33 µM | [15] 32.2 µM | [5] 35.9 µM | [6] 25.9 µM | [7] 99.1 µM | [8] 67.3 µM | [9] 38.6 µM | [10] 83.9 µM | [11] 77.6 µM | [12] > 100 µM | [13] 44.9 µM | [14] 32.5 µM

Cc1ccc(S(=O)(=O)NC(=O)C2S(=O)(=O)OCCOS2(=O)=O)cc1
inactive: [1] > 100 µM | [2] > 100 µM | [15] > 100 µM | [5] > 100 µM | [6] > 100 µM | [7] > 100 µM | [8] > 100 µM | [10] > 100 µM | [11] > 100 µM | [13] > 100 µM

O=S(=O)(O)c1ccc(/N=N/c2nc(C(F)(F)F)c(C(F)(F)F)[nH]2)cc1
inactive: [1] 16.6 µM | [2] 66.5 µM | [3] > 100 µM | [15] 21.2 µM | [5] 53.8 µM | [6] 61.8 µM | [7] 19.2 µM | [8] 20.8 µM | [9] > 100 µM | [10] 29.4 µM | [11] 21.6 µM | [12] 18.4 µM | [13] 65.2 µM | [14] 82 µM

COc1cc(/C=C/c2ccc(OC(C)=O)cc2)cc(OC)c1OC
inactive: [1] 30 µM | [2] 42 µM | [3] 15.5 µM | [4] 23.6 µM | [5] 27.1 µM | [6] 26.1 µM | [7] 41.5 µM | [8] 27.9 µM | [9] 32.4 µM | [10] 31.2 µM | [11] 22.8 µM | [12] 11.1 µM | [13] 26.6 µM | [14] 26.1 µM

CN(C)c1ccc(/C=c2\sc3nnc(-c4cccnc4)n3c2=O)cc1
inactive: [1] > 100 µM | [2] > 100 µM | [3] > 100 µM | [4] > 100 µM | [5] > 100 µM | [6] > 100 µM | [7] > 100 µM | [8] > 100 µM | [9] > 100 µM | [10] > 100 µM | [11] > 100 µM | [12] > 100 µM | [13] > 100 µM | [14] > 100 µM

Cn1c(CBr)nc2c1C(=O)c1nc(CBr)[nH]c(=O)c1C2=O
inactive: [1] 61.4 µM | [2] > 100 µM | [3] > 100 µM | [4] > 100 µM | [5] > 100 µM | [6] > 100 µM | [7] > 100 µM | [8] > 100 µM | [9] > 100 µM | [10] > 100 µM | [12] > 100 µM | [13] > 100 µM | [14] > 100 µM

COc1ccc(/C(=N/NC(=O)NN)C(c2ccc(OC)cc2)C2(O)CNc3c(Cl)cc(Cl)cc32)cc1 (stereo unspecified)
inactive: [1] 37.7 µM | [2] > 100 µM | [3] > 100 µM | [4] > 100 µM | [5] > 100 µM | [6] > 100 µM | [7] > 100 µM | [8] > 100 µM | [9] > 100 µM | [10] > 100 µM | [11] > 100 µM | [12] > 100 µM | [13] > 100 µM | [14] > 100 µM
